According to US20240383852A1, “ANTI-VIRAL COMPOUNDS” (INFEX Therapeutics Limited, priority 2021, published 2024):
Counter-ions that a name gives are not always drawn. Like-named read-outs stand apart in the source and are kept apart here.

Columns and labels:
SARS-CoV-2 PLpro = molecular target: T1, SARS-CoV-2 PLpro (Severe acute respiratory syndrome coronavirus 2, UniProt P0DTD1); experiment: biochemical
T1 construct: containing 60 nM papain-like protease

[1] = system: human Hep G2 cells (ATCC HB-8065); experiment: Cytotoxicity in Hep G2 cells (CellTiter-Glo); assay type: cell-based
[2] = 60 nM papain-like protease, 50 μM Z-RLRGG-AMC, pH 7.5, 37° C., read-out: SARS-CoV-2 PLpro IC50
[3] = Hep G2 cells, 100 μM test article, 24-hour exposure

Row | SMILES | IC50 (SARS-CoV-2 PLpro; [2]) | % Cell Viability [1, 3] | IC50 (SARS-CoV-2 PLpro) | % Cell Viability ([1]; human, 24 h, 100 μM)
1 | COc1cc(-c2cnn(C)c2)cc([C@@H](C)NC(=O)c2cc(C3CCN(C)CC3)ccc2C)c1 [Example 302, N-[(1R)-1-[3-Methoxy-5-(1-methylpyrazol-4-yl)phenyl]ethyl]-2-methyl-5-(1-methyl-4-piperidyl)benzamide] | < 2000 nM | 67.1% |  | 
2 | Cc1ccc(N2CCN(C)CC2)cc1C(=O)N[C@H](C)c1cccc(-c2ccc(N3CCN(CCC(=O)O)CC3)cc2)c1 [Example 165, 3-[4-[4-[3-[(1R)-1-[[2-Methyl-5-(4-methylpiperazin-1-yl)benzoyl]amino]ethyl]phenyl]phenyl]piperazin-1-yl]propanoic acid] | < 2000 nM | 132% |  | 
3 | COc1ccc([C@@H](C)NC(=O)c2cc(N3CCN(C)CC3)ccc2C)c2ccccc12 [Example 192, N-[(1R)-1-(4-Methoxy-1-naphthyl)ethyl]-2-methyl-5-(4-methylpiperazin-1-yl)benzamide] | < 2000 nM | 6.3% |  | 
4 | Cc1ccc(N2CCN(CCO)CC2)cc1C(=O)N[C@H](C)c1cccc(-c2cnn(C)c2)c1 [Example 112, 5-[4-(2-Hydroxyethyl)piperazin-1-yl]-2-methyl-N-[(1R)-1-[3-(1-methylpyrazol-4-yl)phenyl]ethyl]benzamide] | < 2000 nM | 41.0% |  | 
5 | Cc1ccc(N2CCN3CCCC3C2)cc1C(=O)N[C@H](C)c1cccc2ccccc12 (stereo partly drawn) [Example 125, 5-(3,4,6,7,8,8a-Hexahydro-1H-pyrrolo[1,2-a]pyrazin-2-yl)-2-methyl-N-[(1R)-1-(1-naphthyl)ethyl]benzamide hydrochloride salt] | < 2000 nM | 55.8% |  | 
6 | COCCN1CCN(c2ccc(C)c(C(=O)N[C@H](C)c3cccc(-c4cnn(C)c4)c3)c2)CC1 [Example 114, 5-[4-(2-Methoxyethyl)piperazin-1-yl]-2-methyl-N-[(1R)-1-[3-(1-methylpyrazol-4-yl)phenyl]ethyl]benzamide] | < 5000 nM | 59.0% |  | 
7 | Cc1ccc(N2CCN(C)CC2)cc1C(=O)N[C@H](C)c1cccc(-c2cccc(C(=O)NC[C@@H](O)CO)c2)c1 [Example 90] | < 2000 nM | 103.1% |  | 
8 | C[C@@H](NC(=O)c1cc(N2CCN(C)CC2)ccc1Cl)c1cccc2ccccc12 [Example 130, 2-Chloro-5-(4-methylpiperazin-1-yl)-N-[(1R)-1-(1-naphthyl)ethyl]benzamide] | < 10000 nM | 1.0% |  | 
9 | COc1cc(Br)cc([C@@H](C)NC(=O)c2cc(N3CC4CN(C)CC4C3)ccc2C)c1 (stereo partly drawn) [Example 199, N-[(1R)-1-(3-Bromo-5-methoxy-phenyl)ethyl]-2-methyl-5-(2-methyl-1,3,3a,4,6,6a-hexahydropyrrolo[3,4-c]pyrrol-5-yl)benzamide] | < 2000 nM | 0.7% |  | 
10 | Cc1ccc(N2CCN(C)CC2)cc1C(=O)N[C@H](C)c1cccc2ccccc12 [Example 21, 2-Methyl-5-(4-methylpiperazin-1-yl)-N-[(1R)-1-(1-naphthyl)ethyl]benzamide] | < 2000 nM | 56.9% |  | 
11 | Cc1ccc(N2CCN(C)CC2)cc1C(=O)N[C@H](C)c1ccc(N2CCNCC2)cc1 [Example 106, 2-Methyl-5-(4-methylpiperazin-1-yl)-N-[(1R)-1-(4-piperazin-1-ylphenyl)ethyl]benzamide] | < 5000 nM | 87.4% |  | 
12 | C[C@@H](NC(=O)c1cccc(N2CCN(CCC(=O)O)CC2)c1)c1cccc2ccccc12 [Example 161, 3-[4-[3-[[(1R)-1-(1-Naphthyl)ethyl]carbamoyl]phenyl]piperazin-1-yl]propanoic Acid] | < 20000 nM | 97.9% |  | 
13 | Cc1ccc(N2CCN(C)CC2)cc1C(=O)N[C@H](C)c1cccc(-c2cccc(CS(C)(=O)=O)c2)c1 [Example 52, 2-Methyl-5-(4-methylpiperazin-1-yl)-N-[(1R)-1-[3-[3 (methylsulfonylmethyl)phenyl]phenyl]ethyl]benzamide] | < 2000 nM | 49.0% |  | 
14 | COc1cc(-c2cn(C)nc2C)cc([C@@H](C)NC(=O)c2cc(N3CCN(CC4CC4)CC3)ccc2C)c1 [Example 255, 5-[4-(Cyclopropylmethyl)piperazin-1-yl]-N-[(1R)-1-[3-(1,3-dimethylpyrazol-4-yl)-5-methoxy-phenyl]ethyl]-2-methyl-benzamide hydrochloride salt] | < 2000 nM | 70.3% |  | 
15 | COc1cc(-c2cn(C)nc2C)cc([C@@H](C)NC(=O)c2cc(N3C[C@H]4CC[C@@H](C3)N4)ccc2C)c1 [Example 270, 5-[(1S,5R)-3,8-Diazabicyclo[3.2.1]octan-3-yl]-N-[(1R)-1-[3-(1,3-dimethylpyrazol-4-yl)-5-methoxy-phenyl]ethyl]-2-methyl-benzamide] |  |  | < 2000 nM | 22.6%
16 | Cc1ccc(N2CCN(C)CC2)nc1C(=O)N[C@H](C)c1cccc2ccccc12 [Example 15, 3-Methyl-6-(4-methylpiperazin-1-yl)-N-[(1R)-1-(1-naphthyl)ethyl]pyridine-2-carboxamide hydrochloride] | < 10000 nM | 76.1% |  | 

Row | SMILES | IC50 (SARS-CoV-2 PLpro; [2]) | % Cell Viability [1, 3] | IC50 (SARS-CoV-2 PLpro) | % Cell Viability ([1]; human, 24 h, 100 μM)
17 | CNCCN(C)C(=O)c1ccc(-c2cccc([C@@H](C)NC(=O)c3cc(N4CCN(C)CC4)ccc3C)c2)cc1 [Example 75, 2-Methyl-N-[(1R)-1-[3-[4-[methyl-[2-(methylamino)ethyl]carbamoyl]phenyl]phenyl]ethyl]-5-(4-methylpiperazin-1-yl)benzamide] | < 2000 nM | 123.6% |  | 
18 | Cc1ccc(N2CCN(CC3CC3)CC2)cc1C(=O)N[C@H](C)c1cccc2ccccc12 [Example 118, 5-[4-(Cyclopropylmethyl)piperazin-1-yl]-2-methyl-N-[(1R)-1-(1-naphthyl)ethyl]benzamide] | < 2000 nM | 6.6% |  | 
19 | Cc1ccc(N2CCOCC2)cc1C(=O)N[C@H](C)c1cccc2ccccc12 [Example 116, 2-Methyl-5-morpholino-N-[(1R)-1-(1-naphthyl)ethyl]benzamide] | < 10000 nM | 66.6% |  | 
20 | COc1cc(-c2ccccc2)cc([C@@H](C)NC(=O)c2cc(N3CCN(C)CC3)ccc2C)c1 [Example 234, N-[(1R)-1-(3-Methoxy-5-phenyl-phenyl)ethyl]-2-methyl-5-(4-methylpiperazin-1-yl)benzamide] | < 2000 nM | 0.9% |  | 
21 | Cc1ccc(N2CCN(C)CC2)cc1C(=O)N[C@H](C)c1cccc(-c2c(C)n[nH]c2C)c1 [Example 58, N-[(1R)-1-[3-(3,5-Dimethyl-1H-pyrazol-4-yl)phenyl]ethyl]-2-methyl-5-(4-methylpiperazin-1-yl)benzamide] | < 2000 nM | 86.7% |  | 
22 | Cc1ccc(N2CCN(C)CC2)cc1C(=O)N[C@H](C)c1cccc(-c2cccc(C(O)CO)c2)c1 (stereo partly drawn) [Example 71, N-[(1R)-1-[3-[3-(1,2-Dihydroxyethyl)phenyl]phenyl]ethyl]-2-methyl-5-(4-methylpiperazin-1-yl)benzamide] | < 2000 nM | 68.4% |  | 
23 | CNCCN(C)C(=O)c1cccc(-c2cccc([C@@H](C)NC(=O)c3cc(N4CCN(C)CC4)ccc3C)c2)c1 [Example 99, 2-Methyl-N-[(1R)-1-[3-[3-[methyl-[2-(methylamino)ethyl]carbamoyl]phenyl]phenyl]ethyl]-5-(4-methylpiperazin-1-yl)benzamide Hydrochloride Salt] | < 2000 nM | 104.6% |  | 
24 | COc1ccc([C@@H](C)NC(=O)c2cc(N3C[C@@H]4C[C@H]3CN4C)ccc2C)cc1OC [Example 12, N-[(1R)-1-(3,4-Dimethoxyphenyl)ethyl]-2-methyl-5-[(1S,4S)-5-methyl-2,5-diazabicyclo[2.2.1]heptan-2-yl]benzamide] | < 5000 nM | 91.1% |  | 
25 | Cc1ccc(N2CCN(C)CC2)cc1C(=O)N[C@H](C)c1cccc(-c2ccc(CO)cc2)c1 [Example 56, N-[(1R)-1-[3-[4-(Hydroxymethyl)phenyl]phenyl]ethyl]-2-methyl-5-(4-methylpiperazin-1-yl)benzamide] | < 2000 nM | 75.1% |  | 
26 | COc1cc(Br)cc([C@@H](C)NC(=O)c2cc(N3CCN4CCCC4C3)ccc2C)c1 (stereo partly drawn) [Example 200, 5-(3,4,6,7,8,8a-Hexahydro-1H-pyrrolo[1,2a]pyrazin-2-yl)-N-[(1R)-1-(3-bromo-5-methoxy-phenyl)ethyl]-2-methyl-benzamide] | < 2000 nM | 24.3% |  | 
27 | CNC(=O)c1cc(-c2cc([C@@H](C)NC(=O)c3cc(N4CCN(C)CC4)ccc3C)ccc2OC)cs1 [Example 288, 4-[2-Methoxy-5-[(1R)-1-[[2-methyl-5-(4-methylpiperazin-1-yl)benzoyl]amino]ethyl]phenyl]-N-methyl-thiophene-2-carboxamide] | < 2000 nM | 47.2% |  | 
28 | Cc1ccc(N2CCN(CC(=O)N(C)C)CC2)cc1C(=O)N[C@H](C)c1cccc(-c2cnn(C)c2)c1 [Example 113, 5-[4-[2-(Dimethylamino)-2-oxo-ethyl]piperazin-1-yl]-2-methyl-N-[(1R)-1-[3-(1-methylpyrazol-4-yl)phenyl]ethyl]benzamide] | < 20000 nM | 72.7% |  | 
29 | Cc1ccc(N2CCN(CCCC(=O)O)CC2)cc1C(=O)N[C@H](C)c1cccc2ccccc12 [Example 172, 4-[4-[4-Methyl-3-[[(1R)-1-(1-naphthyl)ethyl]carbamoyl]phenyl]piperazin-1-yl]butanoic Acid] | < 2000 nM | 104.6% |  | 
30 | COc1cc(Br)cc([C@@H](C)NC(=O)c2cc(N3CCN(C)CC3)ccc2C)c1 [Example 186, N-[(1R)-1-(3-Bromo-5-methoxy-phenyl)ethyl]-2-methyl-5-(4-methylpiperazin-1-yl)benzamide] | < 2000 nM | 1.0% |  | 
31 | Cc1ccc(N2CCN(C3COC3)CC2)cc1C(=O)N[C@H](C)c1cccc2ccccc12 [Example 117, 2-Methyl-N-[(1R)-1-(1-naphthyl)ethyl]-5-[4-(oxetan-3-yl)piperazin-1-yl]benzamide] | < 5000 nM | 61.1% |  | 
